A word on the IC50: it is the concentration needed to halve the response being measured. By fraction unbound is commonly meant the share of the substance not bound to proteins or other matrix. Lower therefore signals little free substance.

This is an account of results in US20190202836A1, “SELECTIVE DUAL INHIBITORS OF PI3 DELTA AND GAMMA PROTEIN KINASES” (Rhizen Pharmaceuticals SA, priority 2014, published 2019).

The subject of series [1] is pAKT in isolated mouse splenocytes. In words: Assay 6C: Inhibition of AKT phosphorylation in isolated mouse splenocytes. The series is classed as cell-based. The conditions noted are these: Splenocyte, 0.5 h, LPS 20 μg/mL, 30 minutes, ELISA, read-out: EC50, reduction in phosphorylation of AKT. As to the method:
The PI3K pathway is regulated downstream by AKT, a serine-threonine kinase that modulates several oncogenic processes such as cell proliferation, growth, and survival. Because the spleen is a repertoire for vast quantities of B- and T-lymphocytes, inhibition of LPS-induced AKT phosphorylation was determined ex vivo using isolated mouse splenocytes. Cells were plated and incubated with a desired concentration of Compound A1 for 15 minutes followed by induction with LPS (20 μg/mL) for 30 minutes. Following induction, cells were lysed and pAKT was determined by ELISA using pAKT^S473 capture/detection antibody pair and anti-mouse-HRP secondary antibody. Blank subtracted absorbance values were obtained to calculate percent inhibition of pAKT in test samples.

A further series deals with PI3Kδ (Homo sapiens, UniProt O00329). In words: Assay 4: anti-FcεR1 induced CD63 expression in basophils from human whole blood. The series is classed as cell-based. Also on record: endogenous in cells; host or cells: basophils in human whole blood. The conditions noted are these: n=1, read-out: EC50 for FcεR1 (PI3K δ), CD63 positive basophils. As to the method:
PI3K δ and γ signaling in basophils manifested by an alteration of anti-FcεR1 or fMLP induced CD63 expression is a useful pharmacodynamic marker determined using the Flow2CAST® kit (Buhlmann Laboratories, Switzerland). The test procedure involves the following steps: • Mix the anti-coagulated blood sample by inverting the venipuncture tube several times; • Prepare fresh and pyrogen-free 3.5 ml polypropylene or polystyrene tubes suitable for Flow Cytometry measurements; • Add 49 μl of patient's whole blood to each tube; • Add 1 μl of 10% DMSO (background) or test compound (10% DMSO) to the assigned tubes and mix gently. Incubate at room temperature for 15 minutes; • Pipet 50 μl of the Stimulation buffer (background) or anti-FcεRI Ab or fMLP to each tube; • Add 100 μl of Stimulation Buffer to each tube; • Mix gently. Add 20 μl Staining Reagent (1:1 mix of FITC-CD63 and PE-CCR3) to each tube; • Mix gently, cover the tubes and incubate for 15 minutes at 37° C. in a water bath. […]
Percent CD63 positive cells within the gated basophil population were determined in different treatment groups and normalized to vehicle control.

The subject of series [2] is human whole blood B-cell proliferation (CD19). The series is described as follows: Assay 6B: Inhibition of LPS induced CD19 in human whole blood. It counts as cell-based. The conditions noted are these: diluted human whole blood, 72 hours, read-out: EC50, inhibition of LPS-induced human whole blood B-cell proliferation (CD19 expression). As to the method: The effect of Compound A1 on modulating B-cell receptor (BCR)-activated proliferation of human or mouse B-lymphocytes was determined. CD19 is a protein present on B cells from the earliest recognizable B-lineage cells during development to B-cell blasts but is however lost on maturation to plasma cells. LPS is an endotoxin and a major component of environmental microbes with a potent mitogenic activity on B-cells via the […].
Diluted human whole blood was treated with DMSO or desired concentrations of Compound A1. Samples were induced with LPS 15 minutes after addition of compound and incubated for 72 hours at 37° C. and 5% CO2. Cells positive for CD45 and CD19 were determined by flow cytometry and data are expressed as percentage CD19 positive cells in the total population.

The target of the next series is T1, PI3K beta (Mus musculus, UniProt Q8BTI9).
T1 construct: endogenous in cells; host or cells: 3T3 fibroblasts
T1 sequence (Q8BTI9 whole entry): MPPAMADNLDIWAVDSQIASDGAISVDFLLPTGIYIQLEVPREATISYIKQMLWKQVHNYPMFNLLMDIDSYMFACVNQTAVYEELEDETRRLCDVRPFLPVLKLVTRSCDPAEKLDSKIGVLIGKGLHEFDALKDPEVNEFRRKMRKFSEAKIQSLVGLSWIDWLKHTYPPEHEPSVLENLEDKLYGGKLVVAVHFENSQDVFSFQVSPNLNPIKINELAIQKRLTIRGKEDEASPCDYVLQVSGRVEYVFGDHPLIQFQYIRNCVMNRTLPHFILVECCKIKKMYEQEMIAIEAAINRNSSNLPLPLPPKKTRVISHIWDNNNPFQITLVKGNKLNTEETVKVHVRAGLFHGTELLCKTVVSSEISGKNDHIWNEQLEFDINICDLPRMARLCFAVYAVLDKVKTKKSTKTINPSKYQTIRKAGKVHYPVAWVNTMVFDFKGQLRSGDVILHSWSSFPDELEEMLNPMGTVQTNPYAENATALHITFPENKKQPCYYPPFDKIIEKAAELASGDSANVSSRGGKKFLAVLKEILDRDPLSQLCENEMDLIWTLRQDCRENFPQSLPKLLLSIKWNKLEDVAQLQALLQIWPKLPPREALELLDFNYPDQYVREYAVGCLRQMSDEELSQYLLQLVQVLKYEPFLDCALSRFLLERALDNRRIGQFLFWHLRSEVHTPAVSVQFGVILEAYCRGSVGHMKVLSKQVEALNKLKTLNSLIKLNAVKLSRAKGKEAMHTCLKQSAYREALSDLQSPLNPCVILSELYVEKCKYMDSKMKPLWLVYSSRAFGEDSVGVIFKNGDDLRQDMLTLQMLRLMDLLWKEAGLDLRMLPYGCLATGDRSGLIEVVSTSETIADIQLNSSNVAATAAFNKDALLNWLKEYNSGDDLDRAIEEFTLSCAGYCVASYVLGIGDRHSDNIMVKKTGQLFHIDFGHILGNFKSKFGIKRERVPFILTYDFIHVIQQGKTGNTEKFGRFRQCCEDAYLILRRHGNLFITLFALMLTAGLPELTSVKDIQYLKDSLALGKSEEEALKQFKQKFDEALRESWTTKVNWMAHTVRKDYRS
T1 sequence (P26450 whole entry partner): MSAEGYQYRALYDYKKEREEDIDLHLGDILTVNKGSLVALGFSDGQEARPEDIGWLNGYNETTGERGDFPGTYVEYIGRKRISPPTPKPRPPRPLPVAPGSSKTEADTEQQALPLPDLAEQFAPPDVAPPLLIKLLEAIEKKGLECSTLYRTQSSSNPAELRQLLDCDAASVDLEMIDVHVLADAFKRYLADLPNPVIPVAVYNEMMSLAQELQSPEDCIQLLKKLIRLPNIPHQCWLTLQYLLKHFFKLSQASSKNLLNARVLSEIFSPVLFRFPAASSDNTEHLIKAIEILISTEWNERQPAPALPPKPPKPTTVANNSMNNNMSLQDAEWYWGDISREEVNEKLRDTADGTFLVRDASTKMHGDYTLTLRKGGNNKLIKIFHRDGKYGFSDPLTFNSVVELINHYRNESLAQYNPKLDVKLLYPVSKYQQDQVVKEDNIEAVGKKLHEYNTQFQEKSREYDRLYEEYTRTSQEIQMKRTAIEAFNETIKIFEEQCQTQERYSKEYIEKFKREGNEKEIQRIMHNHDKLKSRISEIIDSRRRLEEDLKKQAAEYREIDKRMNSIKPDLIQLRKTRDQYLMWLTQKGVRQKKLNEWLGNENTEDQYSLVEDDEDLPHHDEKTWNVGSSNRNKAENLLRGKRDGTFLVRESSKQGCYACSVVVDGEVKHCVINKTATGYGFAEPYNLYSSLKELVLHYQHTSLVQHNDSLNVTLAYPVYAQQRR
In words: Assay 4A2: LPA induced AktS473 phosphorylation in 3T3 fibroblasts. The series is classed as cell-based. The conditions noted are these: LPA 5 μM, read-out: Cellular IC50 PI3K beta (LPA induced pAKT in 3T3 fibroblasts). The procedure: The objective of this study was to determine the effect of Compound A1 on PI3Kβ kinase mediated LPA induced AktS473 phosphorylation in 3T3 fibroblasts.
3T3 cells were treated with desired concentrations of the test compound for 15 minutes. 1 ml of 2× LPA was added such that the final concentration was 5 μM and incubated for 5 minutes.
Media was discarded and washed with 1 ml of ice-cold 1× PBS.
250 μl of cell lysis buffer was added and incubated on ice for 30 minutes.
Samples were centrifuged and supernatant was maintained at −80° C. until analysis.
Samples were analyzed by Western Blotting using pAKT (S473) as the primary and anti-rabbit IgG-HRP as a secondary antibody.
Intensity of the bands was determined using ImageJ 1.42q (NIH, USA) and normalized to Actin (loading control). Data was plotted using GraphPad Prism (Version 5.02).

Series [3] can be described thus: Plasma protein binding (equilibrium dialysis), human. The series is classed as in vitro ADME. The conditions noted are these: pH 7.4, 37° C. As to the method:
Below is provided the procedure for measuring plasma protein binding (using an equilibrium dialysis method). 745 μL of plasma was transferred into a 2 ml micro centrifuge tube. To that 5 μL of Compound A1 (150 μM) was added. Samples were mixed in the table top vortexer for 2 minutes. 50 μL plasma (n=2) was transferred in a pre-labeled 1.5 mL micro centrifuge tube treated as 0 hour sample.
The remaining 650 μL plasma sample were incubated for 30 minutes at 37° C. in a water bath. After 30 minute incubation, 50 μL plasma (n=2) was removed in a pre-labelled 1.5 mL micro centrifuge tube treated as 0.5 hour sample. 200 μL of the plasma sample (n=2) was transferred into the sample chamber which was indicated by the red ring. The red insert was placed into the base plate and 350 μL of buffer was transferred into the buffer chamber. Plates were incubated at 37° C. at approximately 100 RPM on an orbital shaker or 20 RPM on an up-and-down shaker for 4 hours. 50 μL of post dialysis-sample from the buffer and the plasma chambers were transferred into a pre-labelled micro centrifuged tube. 50 μL of plasma was added to the buffer samples and an equal volume of buffer (KH2PO4 Buffer pH 7.4) to the collected plasma samples. 150 μL of methanol containing internal standard (Tolbutamide 250 ng/ml) was added to precipitate the protein and release compound. […]

Chain of PI3Kδ (O00329 whole entry): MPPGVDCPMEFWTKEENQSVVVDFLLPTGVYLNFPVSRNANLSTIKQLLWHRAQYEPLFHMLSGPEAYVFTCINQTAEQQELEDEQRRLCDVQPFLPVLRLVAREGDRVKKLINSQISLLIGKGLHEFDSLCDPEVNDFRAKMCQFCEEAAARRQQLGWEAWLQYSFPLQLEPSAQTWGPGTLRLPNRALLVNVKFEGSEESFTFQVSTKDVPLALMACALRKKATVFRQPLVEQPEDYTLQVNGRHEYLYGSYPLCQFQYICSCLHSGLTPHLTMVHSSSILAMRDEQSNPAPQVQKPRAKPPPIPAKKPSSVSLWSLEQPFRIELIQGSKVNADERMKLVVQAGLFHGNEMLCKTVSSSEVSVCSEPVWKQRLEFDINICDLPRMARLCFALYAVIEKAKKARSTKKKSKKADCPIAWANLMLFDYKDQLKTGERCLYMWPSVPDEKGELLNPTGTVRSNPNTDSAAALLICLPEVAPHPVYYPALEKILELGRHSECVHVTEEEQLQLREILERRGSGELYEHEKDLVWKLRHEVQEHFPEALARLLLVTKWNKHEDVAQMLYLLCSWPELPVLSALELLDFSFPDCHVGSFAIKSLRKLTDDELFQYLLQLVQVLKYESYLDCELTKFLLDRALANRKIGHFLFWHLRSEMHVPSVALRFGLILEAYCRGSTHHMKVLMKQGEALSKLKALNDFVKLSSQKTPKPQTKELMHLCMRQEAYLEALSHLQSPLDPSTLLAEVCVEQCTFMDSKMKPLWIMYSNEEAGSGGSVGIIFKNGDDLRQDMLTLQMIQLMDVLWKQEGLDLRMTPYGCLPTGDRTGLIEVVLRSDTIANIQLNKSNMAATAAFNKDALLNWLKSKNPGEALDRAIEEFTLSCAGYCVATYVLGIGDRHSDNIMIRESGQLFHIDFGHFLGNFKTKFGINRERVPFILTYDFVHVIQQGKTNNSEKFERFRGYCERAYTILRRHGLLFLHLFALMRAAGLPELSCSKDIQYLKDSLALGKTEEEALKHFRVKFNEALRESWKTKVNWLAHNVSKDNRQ
Chain of PI3Kδ (P27986 whole entry partner): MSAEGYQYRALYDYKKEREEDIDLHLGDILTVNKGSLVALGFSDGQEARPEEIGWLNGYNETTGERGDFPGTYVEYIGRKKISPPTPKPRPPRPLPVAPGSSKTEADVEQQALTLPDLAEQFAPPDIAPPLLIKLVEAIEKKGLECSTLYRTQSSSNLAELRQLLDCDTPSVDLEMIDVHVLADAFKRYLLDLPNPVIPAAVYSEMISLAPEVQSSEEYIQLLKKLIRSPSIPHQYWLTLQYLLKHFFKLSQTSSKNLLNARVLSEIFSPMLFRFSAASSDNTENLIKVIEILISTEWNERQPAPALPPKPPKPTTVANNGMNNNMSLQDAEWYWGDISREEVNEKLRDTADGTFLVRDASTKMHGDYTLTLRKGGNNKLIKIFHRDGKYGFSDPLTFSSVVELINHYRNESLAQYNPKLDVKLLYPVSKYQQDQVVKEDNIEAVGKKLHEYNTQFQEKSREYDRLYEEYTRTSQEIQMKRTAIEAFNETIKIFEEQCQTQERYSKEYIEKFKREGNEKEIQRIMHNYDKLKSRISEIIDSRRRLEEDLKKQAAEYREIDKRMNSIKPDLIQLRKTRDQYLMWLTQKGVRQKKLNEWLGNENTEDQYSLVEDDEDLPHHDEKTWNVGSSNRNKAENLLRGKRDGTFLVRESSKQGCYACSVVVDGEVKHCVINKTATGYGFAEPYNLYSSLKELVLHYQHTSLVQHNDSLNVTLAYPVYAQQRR

As to `COc1ccc(-c2nn([C@@H](C)c3oc4cccc(F)c4c(=O)c3-c3cccc(F)c3)c3ncnc(N)c23)cc1NS(C)(=O)=O` [Compound A1, (S)—N-(5-(4-amino-1-(1-(5-fluoro-3-(3-fluorophenyl)-4-oxo-4H-chromen-2-yl)ethyl)-1H-pyrazolo[3,4-d]pyrimidin-3-yl)-2-methoxyphenyl)methanesulfonamide], the EC50 is 347 nM in series [1], below 30 nM on PI3Kδ and 118 nM in series [2]. In addition, the 50% inhibitory concentration (IC50) on PI3K beta stood at 1320 nM. In addition, the fraction unbound at 4 h, 1 μM in series [3] is 0.0276.
